The source of these data is paper PMC8125951, “Exploring the 2′-Hydroxy-Chalcone Framework for the Development of Dual Antioxidant and Soybean Lipoxygenase Inhibitory Agents” (Molecules, 2021).

The nature of experiment [1]: Interaction with the stable free radical DPPH (reducing activity). Here is the method:
The first assay refers to the interaction of the compounds with the stable free radical DPPH and it is a fast, simple, cost-effective, and widely used method, where the DPPH radical reacts directly with the antioxidant and is decolorized. This interaction indicates their radical scavenging ability in an iron-free system. The scavenging effect of the synthesized analogues on the DPPH radical was evaluated according to the methods of Hadjipavlou et al..
To an ethanolic solution of DPPH (100 μM) in absolute ethanol, an equal volume of the compounds dissolved in DMSO was added (100 μM). […]
(Loss of DPPH colour is used to gauge radical scavenging.)

Experiment [2] can be described thus: Inhibition of linoleic acid lipid peroxidation induced by AAPH. From the text:
The second technique is based on the ability of the compounds to inhibit lipid peroxidation of linoleic acid induced by 2,2′-Azobis(2-amidinopropane) dihydrochloride (AAPH) radical (Table 2). AAPH-induced linoleic acid oxidation has been developed as a quick and reliable method for measuring the antioxidant activity. The thermal free radical producer (AAPH) generates free radicals in the solution which cause the oxidation of linoleic acid, and the method is a measure of how effective antioxidants protect against lipid peroxidation in vitro. Oxidation of linoleic acid by AAPH is followed by UV spectrophotometry in a highly diluted sample [61].
2,2′-Azobis(2-amidinopropane) dihydrochloride (AAPH) was used as a free radical initiator. Ten microliters of the 16 mM linoleic acid sodium salt solution was added to the UV cuvette containing 0.93 mL of 0.05 M phosphate buffer, pH 7.4 prethermostated at 37 °C. The oxidation reaction was initiated at 37 °C under air by the addition of 50 μL of 40 mM AAPH solution. Oxidation was carried out in the presence of the synthesized compounds (10 μL, from a stock solution of 10 mM in DMSO). In the assay without antioxidant, lipid oxidation was measured in the presence of the same level of DMSO.

Experiment [3] can be described thus: Competition of the tested compounds with DMSO for hydroxyl radicals. The conditions noted are these: 100 μM. From the text: Among the reactive oxygen species (ROS), the hydroxyl (^•OH) free radical is possibly the most toxic, reacting with several biological important molecules such as DNA, lipids, or carbohydrates. Polyunsaturated fatty acids are particularly vulnerable by free radicals. Iron released from damaged cells is more likely to be readily available to catalyze the generation of ^•OH radicals. Thus, we tried to test the ability of our compounds to scavenge hydroxyl radicals determining the competition of selected chalcones and aurones with DMSO for hydroxyl radicals. Hydroxyl radicals were generated using the Fe^3+/ascorbic acid system and expressed as a percentage inhibition of formaldehyde production in the presence of each compound at 100 μM.
The hydroxyl radicals generated by the Fe^3+ / ascorbic acid system, were detected by the determination of formaldehyde produced from the oxidation of DMSO (Table 2). A negative control using the same % DMSO was used. Trolox was used as reference compound [75].

The nature of experiment [4]: ABTS radical cation decolorization assay. Particulars: 100 μM. Here is the method: The ABTS radical cation decolorization assay was used as another antioxidant activity estimation protocol (Table 2). Oxidation of ABTS with potassium persulfate generates directly the radical with no involvement of an intermediate radical, which is then reduced upon adding electron-donating antioxidants.
In order to produce the ABTS radical cation (ABTS^+·), ABTS stock solution in water (7 mM) was mixed with potassium persulfate (2.45 mM) and left in the dark at room temperature for 12–16 h before use. Our published experimental technique was used (1). The results are recorded after 1 min of the mixing solutions at 734 nm. The results were compared to the appropriate standard inhibitor Trolox.

The target in experiment [5] is T1, soybean lipoxygenase (Glycine max, UniProt P08170).
T1 sequence (P08170 1-839): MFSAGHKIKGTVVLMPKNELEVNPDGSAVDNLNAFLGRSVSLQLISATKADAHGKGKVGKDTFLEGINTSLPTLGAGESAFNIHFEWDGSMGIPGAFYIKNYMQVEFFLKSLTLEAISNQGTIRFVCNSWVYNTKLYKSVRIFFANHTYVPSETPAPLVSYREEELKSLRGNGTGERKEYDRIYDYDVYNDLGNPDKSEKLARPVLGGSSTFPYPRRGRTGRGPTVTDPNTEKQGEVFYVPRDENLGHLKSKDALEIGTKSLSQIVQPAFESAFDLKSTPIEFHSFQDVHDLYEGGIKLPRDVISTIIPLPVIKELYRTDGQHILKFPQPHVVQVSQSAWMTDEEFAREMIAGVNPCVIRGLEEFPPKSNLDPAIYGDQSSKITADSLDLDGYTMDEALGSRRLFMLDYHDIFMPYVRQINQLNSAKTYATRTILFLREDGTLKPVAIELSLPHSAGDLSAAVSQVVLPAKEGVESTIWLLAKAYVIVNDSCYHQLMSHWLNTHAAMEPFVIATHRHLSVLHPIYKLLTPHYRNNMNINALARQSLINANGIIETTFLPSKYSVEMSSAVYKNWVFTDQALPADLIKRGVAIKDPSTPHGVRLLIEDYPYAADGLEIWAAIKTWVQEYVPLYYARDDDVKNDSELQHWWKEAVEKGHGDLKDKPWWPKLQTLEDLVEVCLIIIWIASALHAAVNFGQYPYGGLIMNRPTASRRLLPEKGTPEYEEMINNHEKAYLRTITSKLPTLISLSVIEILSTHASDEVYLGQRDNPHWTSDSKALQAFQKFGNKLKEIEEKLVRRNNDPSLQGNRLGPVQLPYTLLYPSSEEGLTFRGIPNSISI
The experiment can be described thus: Soybean LOX inhibition study in vitro. The conditions noted are these: for inhibition at 100 µM: read-out: Inhibition of Soybean Lipoxygenase 100 μM (%). Format: biochemical. As for the experimental part: Furthermore, as an indication of their anti-inflammatory activity, all the molecules were tested as inhibitors of soybean lipoxygenase (LOX). The enzyme lipoxygenase catalyzes the first two steps in the metabolism of arachidonic acid, which is cleaved from membrane phospholipids to leukotrienes (LTB4). LTB4 generation is considered to be important in the pathogenesis of neutrophil-mediated inflammatory diseases. For this study, the UV absorbance-based soybean LOX assay was used, which is a plant enzyme with satisfactory homology with the human 5-LOX [61, 62, 63, 64, 65, 66].
The tested compounds dissolved in DMSO were incubated at room temperature with sodium linoleate (0.1 mL) and 0.2 mL of enzyme solution ([…] in saline) in Tris buffer pH 9.

Take `COCOc1ccc(C(=O)/C=C/c2ccc(OCOC)c(OCOC)c2)c(O)c1` [Compound 3a, 2′-hydroxy-4′,3,4-methoxymethoxy-chalcone]: in experiment [1] (100 μM, 60 min), the “Interaction with the Free Radical DPPH (%)” value was 21.6%. Also, the “Inhibition of Lipid Peroxidation of Linoleic Acid Induced by AAPH Radical (%)” value (shortened to “Inhibition of Lipid Peroxidation … (%)”) in experiment [2] (100 μM) turned out to be 11.4%. Besides, the “HO· (%) competition with DMSO for hydroxyl radicals” value (from here on “HO· (%) competition with DMSO”) in experiment [3] is 40%. Also, the “ABTS+· %” value in experiment [4] came to 93%. The inhibition at 100 µM in experiment [5] (at 100 μM) was determined as 40.2%.

In the case of `O=C(/C=C/c1ccc(O)c(O)c1)c1ccc(O)cc1O` [Compound 4a, 2′,3,4,4′-tetrahydroxy-chalcone], the “Interaction with the Free Radical DPPH (%)” value in experiment [1] (0 min) is listed as 95.4%; in experiment [1] (100 μM, 20 min), 95.7%; in experiment [1] (100 μM, 60 min), 95.3%; in experiment [1] (3 min), 95.4%; in experiment [1] (6 min) it was 94.9%; in experiment [1] (9 min), 95.4%. Besides, the “Inhibition of Lipid Peroxidation … (%)” value in experiment [2] (100 μM) was found to be 24.4%. For the same compound, in experiment [3], the “HO· (%) competition with DMSO” value amounted to 68%. For the same compound, the “ABTS+· %” value in experiment [4] amounted to 86%. In addition, the inhibition at 100 µM in experiment [5] (at 100 μM) is 39.3%.

In the case of `O=C(/C=C/c1ccc(O)c(O)c1)c1cc(Br)ccc1O` [Compound 4b, 5′-bromo-2′,3,4-trihydroxy-chalcone], the “Interaction with the Free Radical DPPH (%)” value worked out at 82.4% in experiment [1] (100 μM, 20 min) and 82.0% in experiment [1] (100 μM, 60 min). Besides, the “Inhibition of Lipid Peroxidation … (%)” value in experiment [2] (0 min) was determined as 81.8%; in experiment [2] (100 μM), 82.3%; in experiment [2] (3 min), 82.6%; in experiment [2] (6 min), 82.5%; in experiment [2] (9 min), 81.5%. For the same compound, the “HO· (%) competition with DMSO” value in experiment [3] is 100%. Further, the “ABTS+· %” value in experiment [4] is “inactive and no”. The IC50 in experiment [5] (read-out: Inhibition of Soybean Lipoxygenase IC50) stood at 70 µM.

In the case of `COCOc1ccc2c(c1)O/C(=C\c1ccc(OCOC)c(OCOC)c1)C2=O` [Compound 6a, 3′,4′,6-tri(methoxymethoxy)-aurone], the “Interaction with the Free Radical DPPH (%)” value in experiment [1] (100 μM, 20 min) is “no interaction and did not show any DPPH radical scavenging ability and no”; in experiment [1] (100 μM, 60 min), “no”. Moreover, the “Inhibition of Lipid Peroxidation … (%)” value in experiment [2] (100 μM) is recorded as 18.5%. The “HO· (%) competition with DMSO” value in experiment [3] is reported as 43%. Also, the “ABTS+· %” value in experiment [4] is 86%. Also, the inhibition at 100 µM in experiment [5] (at 100 μM) turned out to be 24.4%.

Turning to `COc1cc(OC)c(OC)cc1/C=C1\Oc2ccccc2C1=O` [Compound 6b, 2′,4′,5′-trimethoxy-aurone], the “Interaction with the Free Radical DPPH (%)” value in experiment [1] (100 μM, 20 min) was “no interaction and did not show any DPPH radical scavenging ability and no”; in experiment [1] (100 μM, 60 min) it was “no”. Besides, in experiment [2] (100 μM), the “Inhibition of Lipid Peroxidation … (%)” value was found to be 29.4%. The “HO· (%) competition with DMSO” value in experiment [3] is listed as “no”. The “ABTS+· %” value in experiment [4] is reported as 64%. Also, in experiment [5] (at 100 μM), the inhibition at 100 µM turned out to be 13%.

Regarding `O=C1/C(=C/c2ccc(O)c(O)c2)Oc2cc(O)ccc21` [Compound 7a, 3′,4′,6-Trihydroxy-Aurone], the “Interaction with the Free Radical DPPH (%)” value was determined as 92.3% in experiment [1] (0 min); 89% in experiment [1] (100 μM, 20 min); 91.2% in experiment [1] (100 μM, 60 min); 94.4% in experiment [1] (3 min); 94.9% in experiment [1] (6 min); 94.9% in experiment [1] (9 min). Moreover, the “Inhibition of Lipid Peroxidation … (%)” value in experiment [2] (100 μM) worked out at 53.2%. Further, the “HO· (%) competition with DMSO” value in experiment [3] is “inactive and no”. Besides, in experiment [4], the “ABTS+· %” value turned out to be 71%. Besides, the inhibition at 100 µM in experiment [5] (at 100 μM) amounted to 24.5%.

On to `O=C1/C(=C/c2cc(O)c(O)cc2O)Oc2ccccc21` [Compound 7b, 2′,4′,5′-Trihydroxy-Aurone], for which the “Interaction with the Free Radical DPPH (%)” value in experiment [1] (0 min) worked out at 98.2%; in experiment [1] (100 μM, 20 min), 100%; in experiment [1] (100 μM, 60 min) it was 100%; in experiment [1] (3 min), 99.3%; in experiment [1] (6 min), 99.5%; in experiment [1] (9 min), 99.8%. In experiment [3], the “HO· (%) competition with DMSO” value is 77%. In addition, in experiment [4], the “ABTS+· %” value is “no”. Further, the “Inhibition of Soybean Lipoxygenase 100 μM (%)” value in experiment [5] (at 100 μM) is “no”.

Broadly, the inhibition is how much of the control response was suppressed. In general, IC50 refers to the concentration that gives 50% inhibition.
